Values after ≈ are worked out from the molar mass of the structure shown. Read-outs that look alike come from different tables or passages of the source. Marks after values point to notes of the source that are not given here.
Experiments:
[1] = system: HuK/F cultures; test: Lactate dehydrogenase release into culture medium (cytotoxicity); type: cell-based, human; details: 48 hours
Description: (§1) For each HuK/F experiment, on a 24 well plate, 1 test material is evaluated at 4 concentrations (in quadruplicate wells per each concentration). In addition, 4 wells serve as medium control, and 4 wells as sodium dodecyl sulfate positive control. For each material evaluated, a dose-range finding study is performed at 0.001, 0.01, 0.1 and 1.0% (w/v) concentrations to determine the concentration eliciting minimum and maximum cytotoxicity in the MTT assay of cell viability. Based on the dose-range finding study, a range of test material concentrations is selected to determine the concentration eliciting minimum and maximum cytotoxicity in the MTT assay of cell viability. Based on the dose-range finding study, concentrations are selected at the maximal cytoxicity level and minimum level and at two 1/3 log intervals between these concentrations (e.g., if the maximum cytoxicity was at 1% with no cytotoxicity or cell death at 0.1% the concentrations evaluated subsequently would be 0.1, 0.3, 0.6 and 1%).
(§2) On treatment day, growth medium is aseptically aspirated, and the cell meshes are treated with two ml of test medium per well. Medium alone served as a no treatment control with 0.01% sodium dodecyl sulfate acting as a positive control (n=4 wells/group). All test plates are incubated at 37 °C and 5% carbon dioxide for 4 to 72 hours. Observations are made (e.g. changes in medium color) during the treatment period.
(§3) • 1. Place one untreated, precut mesh (no cells) into one or more wells to determine the background non-specific binding (NSB) of MTT to mesh and to act as absolute blank. In remaining wells place 1 mesh per well of the fibroblast/keratinocyte co-cultures. Add 2 ml of the assay medium which is supplied with the test kit. (Marrow-Tech supplies a medium). • 2. Remove medium from each well and add 2 ml/well of test agent diluted in assay medium. Refeed untreated control mesh and mesh without cells with assay medium. • 3. Incubate 48 hours at 37 °C in 5%. carbon dioxide atmosphere. • 4. Prepare a solution of 0.5 mg/ml MTT (Sigma Chemical Co. Catalog #M-2128) in assay medium. Centrifuge MTT/medium for 5 minutes at 3000 RPM to pellet undissolved crystals, then prewarm MTT in a 37 °C waterbath. • 5. Remove spent medium. Use 1 ml aliquot to analyze for lactate dehydrogenase and N-acetylglucosaminidase release and glucose; 1 ml can be saved under nitrogen at -70 °C for PGE2 analysis at a later time. • 6. Add 1 ml/well MTT/medium solution. Add medium without MTT to absolute blank well. Incubate cultures at 37 °C, 5% carbon dioxide for 3 hours. • 7. Remove MTT/medium and wash each mesh 2 times with 1 ml Dulbecco's phosphate buffered saline with calcium and magnesium (PBS). About 2-5 minutes each wash. • 8. Remove second PBS wash and add 2 ml isopropanol/well at room temperature 2 hours. This will extract the formazan from mitochondria of cells into the supernatant. (Note: the amount of MTT taken up by a cell culture and subsequently released by solvent extraction is proportional to the number of viable cells within the culture). Remove meshes from test well and stir on shaking vortex mixer. • 9. Transfer 200 microliter aliquots of the blue spent solvent from each well to a 96 well microtiter plate and read absorbance at 540 nm blanking to absolute blank (well not exposed to the MTT). The wells containing the NSB meshes should be subtracted from the test well absorbances before performing calculations below.

[2] = system: HuK/F cultures; test: N-acetylglucosaminidase release into culture medium (cytotoxicity); type: cell-based, human; details: 48 hours
Description: as §1, §2, §3

[3] = MTT assay of cell viability in human skin cell co-cultures on nylon mesh; type: cell-based; details: human, huk/f skin cell co-culture
Description: (§4) The MTT assay measures the reduction of a tetrazolium dye by electron transport in mitochondria of viable cells, and subsequent intracellular trapping of the formazan product. • 1. […] It is a measure of cell viability, and is performed on all treatment meshes immediately following medium collection. The MTT assay quantitates the reduction and subsequent trapping of a yellow tetrazolium dye which is reduced by the electron transport chain of functional mitochondria to a purple formazan dye. Briefly, MTT (3-[4,5-Dimethylthiazol-2yl]-2,5-diphenyltetrazolium bromide; Sigma Catalog #M-2128) powder is diluted in cell culture medium (0.5 mg./ml.) and pre-warmed to 37 °C before use. One ml of this dye solution is aliquoted onto each mesh, and the meshes are then incubated 3 hours at 37 °C and 5% CO₂. After incubation, the MTT is aspirated, and 2 ml. of pure isopropanol is used to extract the reduced dye for two hours at room temperature. The meshes are removed from the culture well and extraction solvent mixed by stirring before aliquoting for absorbance readings. The absorbance of each extract is read at 540 nm on a Biotek EL-312 (96 well) spectrophotometer. • 2.

[4] = system: HuK cells; type: cell-based, human
Description: Human neonatal foreskin keratinocytes are grown in keratinocyte growth medium-KGM complete with epidermal growth factor, insulin, hydrocortisone, anti-microbial agents and supplemented with bovine pituitary extract. (This medium is available from Clonetics). Cultures are maintained in a humidified atmosphere at 37 °C and 5% carbon dioxide throughout the experiment. Four days prior to treatments keratinocytes are trypsinized and subcultured. KGM medium is used and Clonetics reagents and methods used as per their standard protocol. Cells are plated at a density of about 33,000/ well in a 24 well Corning culture plate.
In preliminary experiments with HuK/F co-cultures, two vital dye assays measuring cell viability can be used. […] The MTT assay quantitates the reduction and subsequent trapping of a yellow tetrazolium dye which is reduced by the electron transport chain of functional mitochondria to a purple formazan dye. […] The meshes are removed from the culture well and extraction solvent mixed by stirring before aliquoting for absorbance readings. The absorbance of each extract is read at 540 nm on a Biotek EL-312 (96 well) spectrophotometer. • 2. The Neutral Red Bioassay is described in Borenfreund, E., and Puerner, J., A Simple Quantitative Procedure Using Monolayer Cultures for Cytotoxicity Assays (HTD/NR-90), J. Tissue Cult. […]

[5] = system: HuF cells; type: cell-based, human
Description: Human neonatal fibroblasts are grown in Dulbecco's Modified Eagles Medium (DMEM) supplemented with 10% Fetal Bovine Serum (FBS) (provided by Marrow-Tech). This maintenance medium is the same formulation as described for the above co-cultures with the substitution of 10% FBS for the 2% Ultroser-G medium. Twenty-four hours prior to treatment fibroblasts are trypsinized (Gibco, Trypsin EDTA, Catalog #610-5200AG) by placing 2 ml of 0.25% trypsin over PBS washed cells. After about 1 minute the trypsin is aspirated and cells observed microscopically for rounding up and release from the culture dish. […]
In preliminary experiments with HuK/F co-cultures, two vital dye assays measuring cell viability can be used. […] The MTT assay quantitates the reduction and subsequent trapping of a yellow tetrazolium dye which is reduced by the electron transport chain of functional mitochondria to a purple formazan dye. […] The meshes are removed from the culture well and extraction solvent mixed by stirring before aliquoting for absorbance readings. The absorbance of each extract is read at 540 nm on a Biotek EL-312 (96 well) spectrophotometer. • 2. The Neutral Red Bioassay is described in Borenfreund, E., and Puerner, J., A Simple Quantitative Procedure Using Monolayer Cultures for Cytotoxicity Assays (HTD/NR-90), J. Tissue Cult. […] The cells are evaluated using the standard neutral red assay methodology. […]

[6] = in vitro; details: human, keratinocyte monolayer
Description: The human keratinocyte monolayer cultures (available from Clonetics) were characterized using a fluorescein-labeled anti-cytokeratin antibody that stained the cytoskeleton of keratinocytes preferentially. This stain confirms that the cells are epithelial in nature.

[7] = system: HuK/F cultures; test: MTT assay of cell viability in human skin cell co-cultures on nylon mesh; type: cell-based
Description: as §4

[8] = human, huk/f skin cell co-culture, 48 h

CC(C)(C)CC(C)(C)c1ccc(OCCOCC[N+](C)(C)Cc2ccccc2)cc1 [Benzethonium Chloride]
Lactate Dehydrogenase Release ([1]; 0.001 % w/v): 433.5+ U/L
Lactate Dehydrogenase Release ([1]; 0.003 % w/v): 1408.0+* U/L
Lactate Dehydrogenase Release ([1]; 0.006 % w/v): 1344.0+* U/L
Lactate Dehydrogenase Release ([1]; 0.01 % w/v): 1471.5+ U/L
N-Acetylglucosaminidase Release ([2]; 0.001 % w/v): 21.20+ U/L
N-Acetylglucosaminidase Release ([2]; 0.003 % w/v): 37.63+* U/L
N-Acetylglucosaminidase Release ([2]; 0.006 % w/v): 37.10+* U/L
N-Acetylglucosaminidase Release ([2]; 0.01 % w/v): 21.73+* U/L

CCCCCCCCCCCC[N+](C)(C)[O-] [C12 DDAO, Dodecyl Dimethyl Amine Oxide]
CC50 at 48 h [3]: 180 µg/mL (≈ 0.785 mM)
Lactate Dehydrogenase Release ([1]; 0.01 % w/v): 116.0+ U/L
Lactate Dehydrogenase Release ([1]; 0.03 % w/v): 1270.0+ U/L
Lactate Dehydrogenase Release ([1]; 0.06 % w/v): 1261.5+ U/L
Lactate Dehydrogenase Release ([1]; 0.1 % w/v): 1196.0+ U/L
N-Acetylglucosaminidase Release ([2]; 0.01 % w/v): 21.15 U/L
N-Acetylglucosaminidase Release ([2]; 0.03 % w/v): 23.53+ U/L
N-Acetylglucosaminidase Release ([2]; 0.06 % w/v): 23.33+ U/L
N-Acetylglucosaminidase Release ([2]; 0.1 % w/v): 26.90+ U/L

CCCCCCCCCCCCOS(=O)(=O)[O-].[Na+] [Sodium Dodecyl Sulfate]
CC50 at 48 h ([3]; concentration w/v giving 50% decrease in MTT dye uptake vs untreated control, HuK/F, 48 hours, read-out: MTT-50 Endpoint (Concentration w/v)): 57 µg/mL
more sensitive than HuK/F cultures (decrease in cell viability, NR assay) [4]: about 10 fold
more sensitive than HuK/F cultures (decrease in cell viability, NR assay) [5]: about 10 fold
fold induction at 48 h [6]: ~2.5

CCCCCCCC/C=C\CCCCCCCC(=O)OCCOCC(OCCO)C1OCC(OCCO)C1OCCO (stereo not drawn) [Tween 80, Polyoxyethylenesorbitan Monooleate]
CC50 at 48 h [3]: 4300 µg/mL (≈ 7.11 mM)

Ammonium Coconut Alkyl Ethoxylate 6.5 Sulfate [NH4CNAE6.5S]
MTT-50 Endpoint (Concentration w/v) [7, 8]: 0.019%

Ammonium Coconut Alkyl Ethoxylate 12 Sulfate [NH4CNAE12S]
MTT-50 Endpoint (Concentration w/v) [7, 8]: 0.025%

Benzalkonium Chloride
MTT-50 Endpoint (Concentration w/v) ([7]; concentration w/v giving 50% decrease in MTT dye uptake vs untreated control, HuK/F, 48 hours): 0.0007%
Lactate Dehydrogenase Release ([1]; 0.0005 % w/v): 138.5+ U/L
Lactate Dehydrogenase Release ([1]; 0.001 % w/v): 1032.0+* U/L
Lactate Dehydrogenase Release ([1]; 0.005 % w/v): 1334.5+* U/L
Lactate Dehydrogenase Release ([1]; 0.01 % w/v): 1236.5+* U/L
N-Acetylglucosaminidase Release ([2]; 0.0005 % w/v): 14.95+ U/L
N-Acetylglucosaminidase Release ([2]; 0.001 % w/v): 18.08+* U/L
N-Acetylglucosaminidase Release ([2]; 0.005 % w/v): 19.93+* U/L
N-Acetylglucosaminidase Release ([2]; 0.01 % w/v): 11.98+* U/L

— patent publication EP0497399A1, “Process for evaluating skin irritancy” (THE PROCTER & GAMBLE COMPANY, priority 1991, dated 1992)
